Values of other authors, collected in patent publication US20220168241A1, “SUSTAINED RELEASE C[…] METHOD OF PREPARATION THEREOF” (PHARMATHEN S.A., priority 2019, published 2022).

Molecular target: recombinant μ-opioid receptor (Homo sapiens, UniProt P35372)
Sequence (P35372 whole entry, species assumed): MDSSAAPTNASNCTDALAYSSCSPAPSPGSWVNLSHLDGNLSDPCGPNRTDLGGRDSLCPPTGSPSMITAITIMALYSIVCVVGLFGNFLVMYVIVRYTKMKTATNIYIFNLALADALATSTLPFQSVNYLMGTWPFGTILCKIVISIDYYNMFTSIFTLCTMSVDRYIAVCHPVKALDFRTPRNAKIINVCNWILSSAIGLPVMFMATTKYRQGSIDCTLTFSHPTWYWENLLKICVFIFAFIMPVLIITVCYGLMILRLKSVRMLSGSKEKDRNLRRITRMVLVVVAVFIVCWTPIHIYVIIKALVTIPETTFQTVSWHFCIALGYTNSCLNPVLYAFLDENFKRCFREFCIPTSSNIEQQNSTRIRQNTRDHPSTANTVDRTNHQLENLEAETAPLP

## CC[C@@H](c1cccc(O)c1)[C@@H](C)CN(C)C [Tapentadol]
  reduced affinity to recombinant μ-opioid receptor compared to morphine: 18 times
